# Data taken from patent US20120208781A1, “AMINOGLYCOSIDE DOSING REGIMENS” (Achaogen, Inc., priority 2009, published 2012).
# “And” between values parts separate entries of the source, which are not always exact repeats. Identical values can stand only once. Like-named read-outs stand apart in the source and are kept apart here.
# Assays:
# [1] = Pharmacokinetics of Compound 1 after single bolus IV injection in beagle dogs (plasma); assay type: in vivo; settings: for AUC(0-inf) / C0 / clearance / MRT inf / Vd: iv; for MRT inf: read-out: MRT0-∞
# Description: Male CD-1 mice, Sprague Dawley rats, and beagle dogs were administered Compound 1 intravenously. Compound 1 was preformulated as a sterile isotonic solution of 10 mg/mL in PBS. Specifically, male CD-1 mice were administered a single bolus IV injection of the Compound at 10 mg/kg, via a bolus IV injection into the tail vein. Two blood samples per mouse were collected by retro-orbital puncture into tubes containing the anticoagulant K2EDTA prior to dosing and at 0.033, 0.083, 0.25, 0.5, 1 and 24 hours. Rats were administered Compound 1 at 10 mg/kg via a bolus IV injection into the tail vein. Twelve blood samples per rat were collected via a jugular vein cannula into tubes containing the anticoagulant K2EDTA at various timepoints (i.e., 0.033, 0.083, 0.25, 0.5, 1, 2, 4, 6, 8, 10, 12, and 24 hours). Male beagle dogs were administered Compound 1 at 10 mg/kg through a temporary percutaneous catheter placed in a peripheral vein. Whole blood samples (0.5 mL) were collected from each dog prior to dosing and at 0.033, 0.083, 0.25, 0.5, 1, 2, 4, 6, 8, and 24 hours via direct venipuncture of a jugular or cephalic vein into tubes containing the anticoagulant K2EDTA. A sparse sampling method was employed to conserve animals and provide the best data possible from fewer mice. Samples were centrifuged, and plasma was collected and transferred into a new tube and frozen at −80° C. until they were analyzed.
# Blood, urine, and kidney samples collected over 24 hours were analyzed for Compound 1 levels using LC-MS/MS. Method performance was acceptable in the concentration ranges necessary to determine plasma levels. Compound 1 plasma concentrations were determined by comparing Compound 1 concentration in the sample to a standard curve derived from LC-MS/MS measurements of the analyte. The standard curve fit was linear with a 1/x^2 weighting.
# Bioanalytical data analyses were carried out using Analyst software (version 1.4.1, Applied Biosystems, Toronto, ON, Canada). […] PK parameters were determined by noncompartmental analysis using WinNonLin. Plasma protein binding was determined using equilibrium dialysis. In vitro stability was determined using commercially available plasma, microsomes and hepatocytes.
# [2] = tested on: S. aureus (SA); assay: MIC, CLSI broth microdilution, worldwide isolates: S. aureus; assay type: cell-based
# From the text: (§1) In the first study, a total of 235 isolates were collected from medical centers worldwide and tested for susceptibility to Compound 1 and comparator agents by CLSI broth microdilution methods. […] Non-ENT GN pathogens included WT P. aeruginosa (PSA) and Acinetobacter spp. (ACB), and carbapenem (CARB)-R strains, including those with MBL and OXA enzymes, SA and coagulase-negative staphylococci (CoNS) included oxacillin-susceptible (MSSA/MS-CoNS) and —R (MRSA/MR-CoNS) strains.
# (§2) Minimum inhibitory concentrations (MIC) were determined by reference Clinical and Laboratory Standards Institute (CLSI) broth microdilution methods per M7-A7 [2006]. Briefly, serial two-fold dilutions of Compound 1 and comparator AGs (together, “the test compounds”) were prepared at 2× concentration in appropriate diluent. The dilutions were mixed in 96-well assay plates with bacterial inoculum. Bacteria were suspended in sterile saline and added to each assay plate to obtain a final concentration of 5.5×10^5 CFU/mL. The plates were incubated at 35° C. for 20 hours in ambient air. […] After incubation, assay plates were read using a microtiter plate reader at 600 nm.
# [3] = tested on: coagulase-negative staphylococci (CoNS); assay: MIC, CLSI broth microdilution, worldwide isolates: coagulase-negative staphylococci; assay type: cell-based
# From the text: as §1, §2
# [4] = tested on: A. baumannii (AB); assay: MIC, broth microdilution, Brooklyn hospital isolates: A. baumannii; assay type: cell-based
# Description: In another study, the activity of Compound 1 against a collection of contemporary Gram-negative bacteria was determined. Unique patient isolates of P. aeruginosa (PA), A. baumannii (AB), K. pneumoniae (KP), E. coli (EC), and Enterobacter spp. (EB) from prior surveys at 16 Brooklyn, N.Y. hospitals were selected based on resistance patterns. The majority of isolates were fingerprinted by automated ribotyping. MICs were performed by broth microdilution. PCR was used to identify aminoglycoside-modifying enzymes (AMEs) in AB and KP and the KPC gene in Enterobacteriaceae (EN). The expression of the efflux genes mexA, C, E and X in PA, and adeB in AB was assessed by real-time RT-PCR.
# [5] = Phase 1 study 15 mg/kg/day once daily for five days: pharmacokinetics; assay type: in vivo; settings: human
# Description: An additional randomized, double-blind, placebo-controlled study was performed to assess the safety and pharmacokinetics of Compound 1 following IV administration to healthy adult volunteers according to a high dose, short course regimen of 15 mg/kg/day of Compound 1 administered once daily for five days. Compound 1 was formulated as a sterile solution at a concentration of 50 mg/mL in 10 mL glass vials for intravenous (IV) administration (“Compound 1 Injection”). Eight healthy subjects were randomized to receive either Compound 1 Injection or placebo administered IV by 10 minute infusion daily for five days. Seven subjects received 5 doses and one received 3 doses (early withdrawal for personal reasons).
# [6] = Guinea pig toxicokinetics of Compound 1; assay type: in vivo, guinea pigs
# Description: Additionally, four groups of four male and four female animals were utilized for toxicokinetic (TK) sampling and received the control or test article in the same manner as the main study groups at respective dose levels of 0 (Vehicle Control), 8, 30, or 80 mg/kg.
# Physical examinations were conducted pretest on all animals and prior to study termination for main study animals. […] Blood samples for determination of the plasma concentrations of the test article were collected from TK animals at designated time points on Day 1 and Day 14. After blood collection, the TK animals were euthanized and the carcasses were discarded.
# [7] = beagle dogs, 10 mg/kg single bolus IV, Mean ± SD, 10 mg/kg
# [8] = male, beagle, dog, plasma, 10 mg/kg, beagle dogs, 10 mg/kg single bolus IV, Dog 601
# [9] = male, beagle, dog, plasma, 10 mg/kg, beagle dogs, 10 mg/kg single bolus IV, Dog 602
# [10] = male, beagle, dog, plasma, 10 mg/kg, beagle dogs, 10 mg/kg single bolus IV, Dog 603
# [11] = male, beagle, dog, plasma, 10 mg/kg, beagle dogs, 10 mg/kg single bolus IV, Mean ± SD
# [12] = Staphylococcus aureus, SA isolates
# [13] = Acinetobacter baumannii, AB (n = 38)
# [14] = after 5 days of once-daily IV 15 mg/kg
# [15] = plasma, after 5 days of once-daily IV 15 mg/kg
structure (smiles),measurement,setting,value
"CN[C@@H]1[C@@H](O)[C@@H](O[C@@H]2[C@@H](O)[C@H](O[C@H]3OC(CNCCO)=CC[C@H]3N)[C@@H](N)C[C@H]2NC(=O)[C@@H](O)CCN)OC[C@]1(C)O [Compound 1, 6′-(2-Hydroxy-ethyl)-1-(4-amino-2(S)-hydroxy-butyryl)-sisomicin]",HL Lambda Z,"[1]; beagle dogs, 10 mg/kg single bolus IV, Dog 601",1.18 h
same,HL Lambda Z,"[1]; beagle dogs, 10 mg/kg single bolus IV, Dog 602",1.24 h
same,HL Lambda Z,"[1]; beagle dogs, 10 mg/kg single bolus IV, Dog 603",1.23 h
same,AUC0-∞,[1]; [7],82600 ± 11500 ng·h/mL
same,HL Lambda Z,[1]; [7],1.22 h and 1.22 ± 0.03 h
same,half-life,"[1]; male, beagle, dog, plasma, intravenous, 10 mg/kg, dogs, read-out: t½ (renal clearance) (converted)",~1 h
same,AUC(0-inf),[1]; [8],69400 ng·h/mL
same,C0,[1]; [8],134 µg/mL
same,clearance,[1]; [8],2.4 mL/min/kg
same,MRT inf,[1]; [8],1.26 h
same,Vd,"[1]; male, beagle, dog, plasma, 10 mg/kg, beagle dogs, 10 mg/kg single bolus IV, Dog 601, read-out: Vss",0.181 L
same,AUC(0-inf),[1]; [9],88700 ng·h/mL
same,C0,[1]; [9],119 µg/mL
same,clearance,[1]; [9],1.88 mL/min/kg
same,MRT inf,[1]; [9],1.32 h
same,Vd,"[1]; male, beagle, dog, plasma, 10 mg/kg, beagle dogs, 10 mg/kg single bolus IV, Dog 602, read-out: Vss",0.149 L
same,AUC(0-inf),[1]; [10],89700 ng·h/mL
same,C0,[1]; [10],106 µg/mL
same,clearance,[1]; [10],1.85 mL/min/kg
same,MRT inf,[1]; [10],1.45 h
same,Vd,"[1]; male, beagle, dog, plasma, 10 mg/kg, beagle dogs, 10 mg/kg single bolus IV, Dog 603, read-out: Vss",0.162 L
same,AUC(0-inf),[1]; [11],83000 ng·h/mL
same,C0,[1]; [11],120 µg/mL
same,clearance,[1]; [11],2.05 mL/min/kg
same,MRT inf,[1]; [11],1.34 h
same,Vd,"[1]; male, beagle, dog, plasma, 10 mg/kg, beagle dogs, 10 mg/kg single bolus IV, Mean ± SD, read-out: Vss",0.164 ± 0.016 L
same,Vd,"[1]; male, beagle, dog, plasma, 10 mg/kg, beagle dogs, 10 mg/kg single bolus IV, mean, read-out: volume of distribution at steady state",0.164 L/kg
same,Cumulative % inhibited at Cmpd. MIC 1,[2]; SA (30),96.7%
same,Cumulative % inhibited at Cmpd. MIC 2,[2]; SA (30),100.0%
same,Cumulative % inhibited at Cmpd. MIC ≦0.5,[2]; SA (30),66.7%
same,Cumulative % inhibited at Cmpd. MIC 1,"[2]; SA, MRSA (20)",100.0%
same,Cumulative % inhibited at Cmpd. MIC ≦0.5,"[2]; SA, MRSA (20)",60.0%
same,Cumulative % inhibited at Cmpd. MIC 1,"[2]; SA, MSSA (10)",90.0%
same,Cumulative % inhibited at Cmpd. MIC 2,"[2]; SA, MSSA (10)",100.0%
same,Cumulative % inhibited at Cmpd. MIC ≦0.5,"[2]; SA, MSSA (10)",80.0%
same,MIC50,[2]; [12],≤ 0.25 µg/mL
same,MIC90,[2]; [12],0.5 µg/mL
same,MIC50,[3]; CONS isolates,≤ 0.25 µg/mL
same,MIC90,[3]; CONS isolates,≤ 0.25 µg/mL
same,Cumulative % inhibited at Cmpd. MIC ≦0.5,[3]; CoNS (20),100.0%
same,isolates with Compound 1 MICs >8,[4]; AB isolates with increased expression of adeB,69%
same,isolates with Compound 1 MICs>4,[4]; AB isolates with the AME aacA4,93%
same,isolates with Compound 1 MICs >8,[4]; AB isolates without increased expression of adeB,13%
same,isolates with Compound 1 MICs>4,[4]; AB isolates without the AME aacA4,50%
same,MIC50,[4]; [13],8 µg/mL
same,MIC90,[4]; [13],> 16 µg/mL
same,MIC,"[4]; Acinetobacter baumannii, AB isolates without AMEs, read-out: MICs achieved by some isolates",> 16 µg/mL
same,area under the plasma concentration-time curve,[5]; [14],239000 ng·h/mL
same,fluctuation index,[5]; [14],> 1000%
same,trough (Cmin),[5]; [14],0.4 µg/mL
same,drug accumulation,[5]; once-daily dosing for up to 5 days,lack of appreciable drug accumulation
same,AUC,"[5]; plasma, intravenous, 15 mg/kg, read-out: average AUC in humans",~240000 ng·h/mL
same,clearance,[5]; [15],1.1 mL/min/kg
same,half-life,[5]; [15],~3 h
same,Cmax,"[5]; plasma, after 5 days of once-daily IV 15 mg/kg, read-out: peak (Cmax)",113 µg/mL
same,Vd,"[5]; plasma, after 5 days of once-daily IV 15 mg/kg, read-out: steady state volume of distribution",0.24 L/kg
same,guinea pig AUC relative to average human AUC at proposed clinical dose,[6]; 80 mg/kg/day guinea pig vs 15 mg/kg human,1.5 ×
same,AUC,"[6]; both sexes, Crl:HA (Albino Hartley), guinea pig, plasma, subcutaneous, guinea pigs, 80 mg/kg/day",370000 ng·h/mL
